Measurements from ChEMBL document CHEMBL1629678, “Apricitabine does not select additional drug resistance mutations in tissue culture in human immunodeficiency virus type 1 variants containing K65R, M184V, or M184V plus thymidine analogue mutations” (Antimicrob Agents Chemother, 2009).

Legend:
[1] = test system: Human immunodeficiency virus 1; experiment: Selectivity ratio of IC50 for 32 week drug adapted HIV1 HXB-2D harboring reverse transcriptase V101I/V, D177N, E194G mutant gene to IC50 for HIV1 HXB-2D harboring reverse transcriptase M184V mutant gene; type: functional
[2] = test system: Human immunodeficiency virus 1; experiment: Selectivity ratio of IC50 for 32 week drug adapted HIV1 HXB-2D harboring reverse transcriptase K65R mutant gene to IC50 for HIV1 HXB-2D harboring reverse transcriptase K65R mutant gene; type: functional
[3] = test system: Human immunodeficiency virus 1; experiment: Antiviral activity against wild type HIV1 HXB-2D infected in human cord blood mononuclear cells; type: functional, organism-based; settings: Human immunodeficiency virus 1, HXB-2D
[4] = test system: Human immunodeficiency virus 1; experiment: Selectivity ratio of IC50 for 51 week drug adapted HIV1 HXB-2D harboring reverse transcriptase M184V/M, K65R mutant gene to IC50 for HIV1 HXB-2D harboring wild type reverse transcriptase; type: functional
[5] = test system: Human immunodeficiency virus 1; experiment: Antiviral activity against HIV1 HXB-2D harboring reverse transcriptase M184V, M41L and T215Y mutant gene infected in human cord blood mononuclear cells; type: functional, organism-based; settings: Human immunodeficiency virus 1, HXB-2D
[6] = test system: Human immunodeficiency virus 1; experiment: Selectivity ratio of IC50 for 8 week drug adapted HIV1 HXB-2D harboring reverse transcriptase K65R mutant gene to IC50 for HIV1 HXB-2D harboring reverse transcriptase K65R mutant gene; type: functional
[7] = test system: Human immunodeficiency virus 1; experiment: Selectivity ratio of IC50 for 17 week drug adapted HIV1 HXB-2D harboring reverse transcriptase D237N mutant gene to IC50 for HIV1 HXB-2D harboring wild type reverse transcriptase; type: functional
[8] = test system: Human immunodeficiency virus 1; experiment: Selectivity ratio of IC50 for 17 week drug adapted HIV1 HXB-2D harboring reverse transcriptase S68S/G mutant gene to IC50 for HIV1 HXB-2D harboring reverse transcriptase K65R mutant gene; type: functional
[9] = test system: Human immunodeficiency virus 1; experiment: Selectivity ratio of IC50 for 28 week drug adapted HIV1 HXB-2D harboring reverse transcriptase M184V, M41L, T215Y mutant gene to IC50 for HIV1 HXB-2D harboring reverse transcriptase M184V, M41L, T215Y mutant gene; type: functional
[10] = test system: Human immunodeficiency virus 1; experiment: Selectivity ratio of IC50 for HIV1 HXB-2D harboring reverse transcriptase M184V mutant gene to IC50 for wild type HIV1 HXB-2D infected in human cord blood mononuclear cells; type: functional
[11] = test system: Human immunodeficiency virus 1; experiment: Selectivity ratio of IC50 for 20 week drug adapted HIV1 HXB-2D harboring reverse transcriptase M184V, M41L, T215Y mutant gene to IC50 for HIV1 HXB-2D harboring reverse transcriptase M184V, M41L, T215Y mutant gene; type: functional
[12] = test system: Human immunodeficiency virus 1; experiment: Selectivity ratio of IC50 for 32 week drug adapted HIV1 HXB-2D harboring wild type reverse transcriptase to IC50 for HIV1 HXB-2D harboring wild type reverse transcriptase; type: functional
[13] = test system: Human immunodeficiency virus 1; experiment: Selectivity ratio of IC50 for HIV1 HXB-2D harboring reverse transcriptase K65R mutant gene to IC50 for wild type HIV1 HXB-2D infected in human cord blood mononuclear cells; type: functional
[14] = test system: Human immunodeficiency virus 1; experiment: Selectivity ratio of IC50 for HIV1 HXB-2D harboring reverse transcriptase M184V, M41L and T215Y mutant gene to IC50 for wild type HIV1 HXB-2D infected in human cord blood mononuclear cells; type: functional
[15] = test system: Human immunodeficiency virus 1; experiment: Selectivity ratio of IC50 for 38 week drug adapted HIV1 HXB-2D harboring reverse transcriptase S68S/G mutant gene to IC50 for HIV1 HXB-2D harboring reverse transcriptase K65R mutant gene; type: functional
[16] = test system: Human immunodeficiency virus 1; experiment: Selectivity ratio of IC50 for 8 week drug adapted HIV1 HXB-2D harboring reverse transcriptase D237N mutant gene to IC50 for HIV1 HXB-2D harboring wild type reverse transcriptase; type: functional
[17] = test system: Human immunodeficiency virus 1; experiment: Selectivity ratio of IC50 for 8 week drug adapted HIV1 HXB-2D harboring reverse transcriptase M184V, M41L, T215Y mutant gene to IC50 for HIV1 HXB-2D harboring reverse transcriptase M184V, M41L, T215Y mutant gene; type: functional
[18] = test system: Human immunodeficiency virus 1; experiment: Selectivity ratio of IC50 for 38 week drug adapted HIV1 HXB-2D harboring reverse transcriptase V101I/V, D177N, E194G mutant gene to IC50 for HIV1 HXB-2D harboring reverse transcriptase M184V mutant gene; type: functional
[19] = test system: Human immunodeficiency virus 1; experiment: Selectivity ratio of IC50 for 8 week drug adapted HIV1 HXB-2D harboring reverse transcriptase F87L/F mutant gene to IC50 for HIV1 HXB-2D harboring reverse transcriptase M184V mutant gene; type: functional
[20] = test system: Human immunodeficiency virus 1; experiment: Selectivity ratio of IC50 for 38 week drug adapted HIV1 HXB-2D harboring reverse transcriptase I50T/II, D237N/D mutant gene to IC50 for HIV1 HXB-2D harboring wild type reverse transcriptase; type: functional
[21] = test system: Human immunodeficiency virus 1; experiment: Selectivity ratio of IC50 for 51 week drug adapted HIV1 HXB-2D harboring reverse transcriptase M184V, K65R mutant gene to IC50 for HIV1 HXB-2D harboring wild type reverse transcriptase; type: functional
[22] = test system: Human immunodeficiency virus 1; experiment: Antiviral activity against HIV1 HXB-2D harboring reverse transcriptase M184V mutant gene infected in human cord blood mononuclear cells; type: functional, organism-based; settings: Human immunodeficiency virus 1, HXB-2D
[23] = test system: Human immunodeficiency virus 1; experiment: Antiviral activity against HIV1 HXB-2D harboring reverse transcriptase K65R mutant gene infected in human cord blood mononuclear cells; type: functional, organism-based; settings: Human immunodeficiency virus 1, HXB-2D
[24] = test system: Human immunodeficiency virus 1; experiment: Selectivity ratio of IC50 for 17 week drug adapted HIV1 HXB-2D harboring reverse transcriptase D177N/D, E194E/G mutant gene to IC50 for HIV1 HXB-2D harboring reverse transcriptase M184V mutant gene; type: functional
[25] = test system: Human immunodeficiency virus 1; experiment: Selectivity ratio of IC50 for 48 week drug adapted HIV1 HXB-2D harboring reverse transcriptase M184V mutant gene to IC50 for HIV1 HXB-2D harboring wild type reverse transcriptase; type: functional

`Nc1ccn([C@H]2CO[C@@H](CO)S2)c(=O)n1` [APRICITABINE] was tested, and the “fold change (FC)” value [1] was 3.4, the “fold change (FC)” value [2] was 2.5 and the IC50 [3] was 7.54 µM. For the same compound, the “fold change (FC)” value [4] was 13.3, the IC50 [5] was 13.4 µM and the “fold change (FC)” value [6] was 0.5. For the same compound, the “fold change (FC)” value [7] was 1.3, the “fold change (FC)” value [8] was 0.5 and the “fold change (FC)” value [9] was 3.7. The “fold change (FC)” value [10] was 2.37, the “fold change (FC)” value [11] was 3.7 and the “fold change (FC)” value [12] was 4. For the same compound, the “fold change (FC)” value [13] was 2.69, the “fold change (FC)” value [14] was 1.77 and the “fold change (FC)” value [15] was 3. For the same compound, the “fold change (FC)” value [16] was 4, the “fold change (FC)” value [17] was 0.7 and the “fold change (FC)” value [18] was 3.4. The “fold change (FC)” value [19] was 1.7, the “fold change (FC)” value [20] was 8 and the “fold change (FC)” value [21] was 8. For the same compound, the IC50 [22] was 17.9 µM, the IC50 [23] was 20.3 µM and the “fold change (FC)” value [24] was 1.1. The “fold change (FC)” value [25] was 8.
